We go through three molecules from patent US4680386A, “6-O-methylerythromycin a derivative” (Taisho Pharmaceutical Co., Ltd., priority 1984, dated 1987).

In test [1] the test system is Baccilus cereus ATCC 9634. The test is described as follows: In vitro antibacterial activity (MIC method specified by the Japan Chemotherapeutic Society). Format: cell-based. The following applies: sensitive media (Eiken), read-out: MIC value (minimum inhibitory concentration). How it is done:
(§1) The antibacterial activity of the compound I against various bacteria was measured using sensitive media (produced by Eiken Co.) according to the MIC method specified by the Japan Chemotherapeutic Society. Erythromycin A was used as a control.

In test [2] the test system is Escherichia coli NIHJ JC-2. The description is as above. Format: cell-based. The following applies: NIHJJC2, sensitive media (Eiken), read-out: MIC value (minimum inhibitory concentration). How it is done:
as §1

Test [3] has as its system Staphylococcus aureus Smith No. 4. Described as above. Format: cell-based. The note with it: read-out: MIC value (minimum inhibitory concentration). How it is done:
as §1

Test [4] relates to Streptococcus epidermidis sp-al-l. The test is described as above. Format: cell-based. The following applies: read-out: MIC value (minimum inhibitory concentration). How it is done: as §1
Test [5] has as its system Bacillus subtilis ATCC 6633. The description is as above. Type of test: cell-based. How it is done:
as §1

Test [6] relates to Staphylococcus aureus FDA 209P. Described as above. Format: cell-based. The note with it: FDA209P, read-out: MIC value (minimum inhibitory concentration). How it is done:
as §1

The subject of test [7] is Streptococcus faecalis 8043. The description is as above. Type of test: cell-based. How it is done:
as §1

In test [8] the test system is Staphylococcus aureus Smith No. 4. In words: In vivo antibacterial activity, oral treatment of intraperitoneally infected mice. The arrangement: species or system ICR mice. The following applies: for number of mice surviving for 7 days after the infection: one hour after infection, 10 mice per group. How it is done: 10 male ICR mice (Charles River) being of the average body weight 23 g were used for each group. Staphylococcus aureus Smith No. 4 was grown on heart infusion agar medium at 37° C. for 18 hours. The bacteria were suspended in BSG (containing 8.5 g of NaCl, 300 mg of KH2 PO4, 600 mg of Na2 HPO4, 100 mg of gelatin and 1000 ml of water) to show 6×10^7 cfu/ml (containing 5% of mucin). The bacterial suspension (0.5 ml) was injected intraperitoneally to each groups of mice for infection. Erythromycin A and erythromycin A 9-oxime were used as control. An hour after infection, each compound was administered orally to different groups of animals in the specified amounts to study its therapeutic effect.
The therapeutic effect of the drugs was judged by the […] value calculated from the number of mice surviving for 7 days after the infection according to the method of Litchfield-Wilcoxon.

The subject of the next test is bacteria. In words: Antibacterial activity (general statement). The note with it: general statement in words.
The test system of test [9] is Staphylococcus aureus Smith No. 4. In words: In vivo antibacterial activity, oral treatment of intraperitoneally infected mice. The arrangement: species or system ICR mice. The following applies: one hour after infection, 7-day survival, Litchfield-Wilcoxon, 95% confidence limits given.

Values after ≈ are worked out from the molar mass of the structure shown. Like-named read-outs stand apart in the source and are kept apart here.

Turning to `CC[C@H]1OC(=O)[C@H](C)[C@@H](O[C@H]2C[C@@](C)(OC)[C@@H](O)[C@H](C)O2)[C@H](C)[C@@H](O[C@@H]2O[C@H](C)C[C@H](N(C)C)[C@H]2O)[C@](C)(OC)C[C@@H](C)C(=NO)[C@H](C)[C@@H](O)[C@]1(C)O` [Compound I, 6-O-methylerythromycin A 9-oxime], the MIC in test [1] was determined as 0.1 µg/mL (≈ 0.131 µM); in [2], 50 µg/mL (≈ 65.5 µM); in [3] (Staphylococcus aureus Smith No. 4, sensitive media (Eiken)), 0.1 µg/mL (≈ 0.131 µM); in [4] (Streptococcus epidermidis sp-al-l, sensitive media (Eiken)) it was 0.2 µg/mL (≈ 0.262 µM); in test [5] (ATCC6633, Bacillus subtilis ATCC 6633, sensitive media (Eiken), read-out: MIC value (minimum inhibitory concentration)) it was 0.1 µg/mL (≈ 0.131 µM); in test [6] (Staphylococcus aureus FDA 209P, sensitive media (Eiken)), 0.1 µg/mL (≈ 0.131 µM). The MIC in test [7] (Enterococcus faecalis, Streptococcus faecalis 8043, sensitive media (Eiken), read-out: MIC value (minimum inhibitory concentration)) is no more than 0.05 µg/mL. In addition, the “number of mice surviving for 7 days after the infection” value (“number of mice surviving for 7 days” below) is given as 1/10 in test [8] (0.2 mg/mouse), 4/10 in [8] (0.4 mg/mouse) and 7/10 in [8] (0.8 mg/mouse). For the same molecule, the “antibacterial activity by oral administration” value in test [8] (compared with erythromycin A or erythromycin A 9-oxime) was “far superior to erythromycin A or erythromycin A 9-oxime”. In addition, the antibacterial activity result in the test on bacteria is “strong antibacterial activity”. The molecule also registered an ED50 in test [9] of 0.516 mg/mouse.
For the molecule `CC[C@H]1OC(=O)[C@H](C)[C@@H](O[C@H]2C[C@@](C)(OC)[C@@H](O)[C@H](C)O2)[C@H](C)[C@@H](O[C@@H]2O[C@H](C)C[C@H](N(C)C)[C@H]2O)[C@](C)(O)C[C@@H](C)C(=NO)[C@H](C)[C@@H](O)[C@]1(C)O` [Erythromycin A 9-oxime, erythromycin A 9-oxime], the results for the “number of mice surviving for 7 days” value in test [8] (0.5 mg/mouse), in [8] (1 mg/mouse) and in [8] (2 mg/mouse) were 0/10, 3/10 and 7/10, respectively. In test [9], this molecule showed an ED50 of 1.418 mg/mouse.
As for `CC[C@H]1OC(=O)[C@H](C)[C@@H](O[C@H]2C[C@@](C)(OC)[C@@H](O)[C@H](C)O2)[C@H](C)[C@@H](O[C@@H]2O[C@H](C)C[C@H](N(C)C)[C@H]2O)[C@](C)(O)C[C@@H](C)C(=O)[C@H](C)[C@@H](O)[C@]1(C)O` [Erythromycin A, erythromycin A], the MIC in [1] stood at 0.2 µg/mL (≈ 0.273 µM); in [2], 50 µg/mL (≈ 68.1 µM); in [3] (Staphylococcus aureus), 0.1 µg/mL (≈ 0.136 µM); in test [4] (Streptococcus) it was 0.2 µg/mL (≈ 0.273 µM); in [5] (Bacillus subtilis, ATCC6633, read-out: MIC value (minimum inhibitory concentration)) it was 0.1 µg/mL (≈ 0.136 µM); in test [6] (Staphylococcus aureus), 0.2 µg/mL (≈ 0.273 µM). The MIC in test [7] (Enterococcus faecalis, 8043, read-out: MIC value (minimum inhibitory concentration)) was no more than 0.05 µg/mL. Further, the “number of mice surviving for 7 days” value in [8] (1 mg/mouse) is listed as 1/10; in [8] (2 mg/mouse), 8/10; in test [8] (4 mg/mouse), 10/10. In addition, the ED50 in test [9] amounted to 1.517 mg/mouse.
